From ChEMBL document CHEMBL1909599, “Synthesis and anti-HIV-1 activity of 4-substituted-7-(2'-deoxy-2'-fluoro-4'-azido-β-D-ribofuranosyl)pyrrolo[2,3-d]pyrimidine analogues” (Bioorg Med Chem Lett, 2011)

System: Human immunodeficiency virus 1
Assay: Antiviral activity against Human immunodeficiency virus 1 assessed as inhibition of viral replication by MTT assay
Type: functional, organism-based

In order of rising EC50:
1. Cc1cn([C@H]2C[C@H](N=[N+]=[N-])[C@@H](CO)O2)c(=O)[nH]c1=O [ZIDOVUDINE]  84 nM
2. [N-]=[N+]=N[C@]1(CO)O[C@@H](n2ccc3c(N)ncnc32)[C@@H](F)[C@@H]1O  500 nM
3. [N-]=[N+]=N[C@]1(CO)O[C@@H](n2cc(F)c3c(N)ncnc32)[C@@H](F)[C@@H]1O  5400 nM
4. [N-]=[N+]=N[C@]1(CO)O[C@@H](n2ccc3c(O)ncnc32)[C@@H](F)[C@@H]1O  13000 nM
